Columns and labels:
[1] = target: T1, SeADO (cADO from Synechococcus elongates PCC7942) (Synechococcus elongatus, UniProt Q54764); experiment: GC of n-hexane in headspace; type: biochemical; conditions: 2 mM n-heptanal, 4% DMSO, ferredoxin, ferredoxin reductase, 800 uM NADPH, 60 uM ferrous ammonium sulphate, O2, HEPES pH 7.2, 37 C
T1 construct: gene Synpcc7942_1593
T1 sequence (Q54764 1-231): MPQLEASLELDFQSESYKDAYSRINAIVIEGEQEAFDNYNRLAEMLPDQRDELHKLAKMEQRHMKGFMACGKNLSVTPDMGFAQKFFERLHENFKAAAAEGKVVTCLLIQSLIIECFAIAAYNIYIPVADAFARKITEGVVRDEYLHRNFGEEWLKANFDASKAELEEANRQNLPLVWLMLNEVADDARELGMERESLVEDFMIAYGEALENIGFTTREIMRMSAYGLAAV

[2] = target: T1, SeADO (cADO from Synechococcus elongates PCC7942); experiment: X-ray crystal structure (WT1, […] A; also WT0, […] A, iron-free); GC-QqQ-MS/MS of extracted ligand; type: binding; conditions: co-purified ligand in substrate channel; head group bound to Fe2 of di-iron center in WT1; modelled as long-chain fatty alcohol, C18 identified by MS

Row | Compound | GC of n-hexane in headspace [1] | X-ray crystal structure (WT1, 2.3 A; also WT0, 2.26 A, iron-free); GC-QqQ-MS/MS [2]
1 | CCCCCCC=O [n-heptanal] | N-heptanal was selected as the substrate to measure the activity of cADO proteins. | –
2 | CCCCCCCCCCCCCCCCCCO [Lred, C18 fatty alcohol] | – | the dominant of the remaining components was identified as a C18 fatty alcohol

— article PMC4286721, “Structural insights into the catalytic mechanism of aldehyde-deformylating oxygenases” (Protein & Cell, 2014)
